Entries after “also recorded” stand apart in the source; their conditions may differ.
What was measured:
fully-kindled rats = settings: rat, in vivo
[1] = tested on: fully amygdala kindled rats; settings: rat, in vivo
[2] = tested on: audiogenic seizure susceptible mice; settings: mouse, in vivo; cited from earlier work
Non-kindled rats = settings: rat, in vivo
[3] = tested on: amygdala and surrounding brain structures; settings: rat, in vivo

In the case of `NC(=O)N1c2ccccc2C=Cc2ccccc21` [carbamazepine], the “adverse neurological or behavioral effects” value (fully-kindled rats) is reported as “not associated with any observable adverse neurological or behavioral effects”, the “increase in mean AD threshold and decreases in mean seizure stage and mean behavioral seizure duration vs vehicle (p value)” value [1] is reported as under 0.05 and the “kindling measures vs vehicle at later time points” value [1] is reported as “no differences”. The “time course of activity after CED infusion (in words)” value [1] was “apparent at 20 min but not at 24 h; also recorded: active at 20 min but not at 24 h”.
In the case of ω-conotoxin GVIA [ω-CTX-G], the body weight increase (fully-kindled rats) is reported as 0.1±2.1%, the resolution of tremor (fully-kindled rats) is reported as “resolved by the third day after the infusion” and the “tremor after infusions of lower doses” value (fully-kindled rats) is reported as “No tremor was observed”. The protection against seizures [2] was “protected against seizures”, the “time of maximum increase in AD threshold / maximum protective effect after CED infusion” value [1] was 48 h and the “behavioral effects of the toxin infusion (in words)” value (Non-kindled rats) was “no or only mild behavioral effects”. For the same compound, the body weight gain (Non-kindled rats) was 3.0±1.8%, the body weight loss (Non-kindled rats) was 10.3±0.9% and the “cumulative dose corresponding to the threshold for locomotor arrest” value (Non-kindled rats) was 0.013 ± 0.001 nmol. For the same compound, the “cumulative dose corresponding to the threshold for whole body tremors” value (Non-kindled rats) was 0.027 ± 0.002 nmol, the “onset of locomotor activity arrest following the infusion” value (Non-kindled rats) was 5.0 ± 0.4 min and the “onset of rhythmic whole body tremors following the infusion” value (Non-kindled rats) was 10.8 ± 0.9 min. For the same compound, the persistence of tremors (Non-kindled rats) was 24 h, the “rats exhibiting locomotor activity arrest followed by whole body tremors” value (Non-kindled rats) was “All six” and the “tissue damage after repeated CED infusions (cresyl violet and silver staining)” value [3] was “minimal damage”.

From patent US20090209937A1 (priority 2007, published 2009)
